The results in this text go back to DBAASP.

In brackets after ≈: the same amount, converted by molar mass. Some results are limits rather than exact numbers.

Some test systems named below: Escherichia coli UB1005; Candida albicans; Escherichia coli; Klebsiella pneumoniae; Acinetobacter baumannii; Enterococcus faecalis; Pseudomonas aeruginosa; Staphylococcus aureus.
Common to all, as to assay: ≥ marks a high value that may be exact or a test limit, other limits are often not marked, values filed in µg/mL are converted to µM
Assay [1] deals with Staphylococcus epidermidis.
Assay [2] relates to Salmonella enterica serovar Typhimurium.
The test system of assay [3] is Staphylococcus aureus ATCC 25923.
In assay [4] the test system is Enterococcus faecalis ATCC 29212.
Assay [5] has as its system Pseudomonas aeruginosa H103.
Assay [6] concerns Escherichia coli ATCC 25726.
Assay [7] relates to Escherichia coli ATCC 25922.
Assay [8] deals with Pseudomonas aeruginosa Ps4.
Assay [9] deals with Bacillus subtilis ATCC 23857.
The test system of assay [10] is Pseudomonas aeruginosa PAO1.
Assay [11] concerns Pseudomonas aeruginosa ATCC 27853.

Usually MIC stands for the least concentration at which growth counts as inhibited.

Take `CC[C@H](C)[C@H](NC(=O)[C@@H](N)Cc1ccccc1)C(=O)N[C@@H](CCCCN)C(=O)N[C@@H](Cc1c[nH]c2ccccc12)C(=O)N[C@@H](CCCCN)C(=O)N[C@@H](Cc1ccccc1)C(=O)N[C@@H](CCCN=C(N)N)C(=O)N[C@@H](Cc1c[nH]c2ccccc12)C(=O)N[C@@H](Cc1c[nH]c2ccccc12)C(=O)N[C@@H](CCCCN)C(=O)N[C@@H](Cc1c[nH]c2ccccc12)C(=O)N[C@@H](CCCN=C(N)N)C(=O)N[C@@H](CCCCN)C(=O)O` [FIKWKFRWWKWRK]: the MIC in assay [1] is 0.7 µM (≈ 1.4 µg/mL); against Escherichia coli UB1005, 1.5 µM (≈ 2.99 µg/mL); in assay [2] it was 1.5 µM (≈ 2.99 µg/mL); in [3] it was 0.7 µM (≈ 1.4 µg/mL); in assay [4], 1.5 µM (≈ 2.99 µg/mL); against Candida albicans, 3 µM (≈ 5.99 µg/mL). This molecule also returned an MIC in [5] of 6 µM (≈ 12 µg/mL).

Consider `CC[C@H](C)[C@H](NC(=O)CNC(=O)CNC(=O)[C@H](CCCCN)NC(=O)[C@H](Cc1ccccc1)NC(=O)[C@H](Cc1ccccc1)NC(=O)[C@H](CCCCN)NC(=O)[C@H](CCCCN)NC(=O)[C@H](CC(C)C)NC(=O)[C@@H](NC(=O)[C@H](CC(=O)O)NC(=O)[C@H](CCCCN)NC(=O)[C@@H](NC(=O)[C@@H](NC(=O)[C@@H]1CCCN1C(=O)[C@@H]1CCCN1C(=O)[C@@H](NC(=O)[C@H](CCCCN)NC(=O)[C@@H](N)Cc1ccccc1)[C@@H](C)CC)[C@@H](C)CC)C(C)C)[C@@H](C)O)C(=O)N[C@@H](C)C(=O)NCC(=O)N[C@H](C(=O)N[C@@H](CCSC)C(=O)NCC(=O)N[C@@H](CCC(N)=O)C(=O)O)C(C)C` [FKIPPIVKDTLKKFFKGGIAGVMGQ], for which the MIC in [3] came to 5 µM (≈ 13.6 µg/mL); in [6], 20 µM (≈ 54.4 µg/mL).

For the molecule `CC[C@H](C)[C@@H]1NC(=O)[C@H](C)NC(=O)[C@@H](NC(=O)[C@H](Cc2ccccc2)NC(=O)[C@@H](NC(=O)[C@@H](NC(=O)[C@@H]2CCCN2C(=O)[C@@H](NC(=O)[C@@H](NC(=O)[C@H](CCCCN)NC(=O)[C@H](C)NC(=O)[C@H](C)NC(=O)[C@@H](NC(=O)[C@H](CCCN=C(N)N)NC(=O)[C@H](CC(C)C)NC(=O)[C@@H](NC(=O)[C@H](C)NC(=O)[C@@H]2CCCN2C(=O)[C@H](CC(C)C)NC(=O)[C@@H](N)Cc2ccccc2)C(C)C)C(C)C)[C@@H](C)CC)C(C)C)[C@@H](C)O)C(C)C)CSSC[C@@H](C(=O)O)NC(=O)[C@H](CCCCN)NC(=O)[C@H](CCCCN)NC(=O)[C@H](CO)NC1=O` [FLPAVLRVAAKIVPTVFCAISKKC], the figures for the MIC in [3] and in assay [6] were 3.11 µM (≈ 7.99 µg/mL) and 24.3 µM (≈ 62.5 µg/mL), respectively.

`CC[C@H](C)[C@H](NC(=O)[C@H](CC(N)=O)NC(=O)[C@H](CCCN=C(N)N)NC(=O)[C@H](CCC(N)=O)NC(=O)[C@H](Cc1c[nH]c2ccccc12)NC(=O)[C@@H](N)Cc1ccccc1)C(=O)N[C@@H](CCCN=C(N)N)C(=O)N[C@@H](CCCCN)C(=O)N[C@@H](Cc1c[nH]c2ccccc12)C(=O)N[C@@H](CCCN=C(N)N)C(N)=O` [FWQRNIRKWR]: the results for the MIC in assay [7] and in assay [8] were 83.9 µM (≈ 125 µg/mL) and ≥ 83.9 µM, respectively.

Turning to `CC[C@H](C)[C@H](NC(=O)CNC(=O)[C@H](Cc1ccccc1)NC(=O)[C@H](CCSC)NC(=O)[C@@H](NC(=O)[C@H](CC(N)=O)NC(=O)[C@H](CCCCN)NC(=O)[C@H](Cc1ccccc1)NC(=O)[C@H](C)NC(=O)CNC(=O)[C@H](CCCCN)NC(=O)[C@H](Cc1ccccc1)NC(=O)CN)C(C)C)C(=O)N[C@@H](C)C(=O)N[C@@H](CCCCN)C(=O)N[C@@H](CO)C(=O)N[C@@H](C)C(=O)NCC(=O)N[C@@H](CCCCN)C(=O)N[C@@H](CO)C(=O)N[C@@H](C)C(=O)N[C@@H](CC(C)C)C(=O)N[C@@H](CC(N)=O)C(=O)N[C@@H](C)C(=O)N[C@@H](CC(C)C)C(=O)N[C@@H](C)C(=O)N[C@H]1CSSC[C@@H](C(=O)O)NC(=O)[C@H](CO)NC(=O)[C@H](CCCCN)NC(=O)[C@H](CC(=O)O)NC(=O)[C@H]([C@@H](C)CC)NC(=O)[C@H](CCCCN)NC1=O` [GFKGAFKNVMFGIAKSAGKSALNALACKIDKSC], the minimal inhibitory concentration (MIC) in [3] and in assay [6] was 9.18 µM (≈ 31 µg/mL) throughout.

In the case of `CC[C@H](C)[C@H](NC(=O)CN)C(=O)N[C@H](C(=O)N[C@@H](C)C(=O)NCC(=O)N[C@@H](C)C(=O)N[C@H](C(=O)N[C@H](C(=O)N[C@@H](CCCCN)C(=O)N[C@H](C(=O)N[C@@H](CCCCN)C(=O)N[C@@H](CCCCN)C(N)=O)[C@@H](C)CC)[C@@H](C)CC)[C@@H](C)CC)[C@@H](C)CC` [GIIAGAIIKIKK], the figures for the MIC in assay [9] and in [7] were ≥ 32 µM and 64 µM (≈ 78.3 µg/mL), respectively.

In the case of `CC(C)C[C@@H]1NC(=O)CNC(=O)[C@H](CO)NC(=O)[C@H](CC(C)C)NC(=O)[C@H](C)NC(=O)[C@@H](NC(=O)[C@H](C)NC(=O)[C@@H](NC(=O)[C@H](CCCCN)NC(=O)[C@H](CCCCN)NC(=O)CNC(=O)[C@H](C)NC(=O)CNC(=O)[C@H](Cc2ccccc2)NC(=O)[C@H](CC(C)C)NC(=O)[C@H](CO)NC(=O)CNC(=O)[C@H](CC(C)C)NC(=O)[C@H](CC(C)C)NC(=O)CN)C(C)C)CSSC[C@@H](C(=O)O)NC1=O` [GLLGSLFGAGKKVACALSGLC], the values for the MIC in assay [3] and in assay [6] were 63.6 µM (≈ 125 µg/mL) and 31.8 µM (≈ 62.4 µg/mL), respectively.

On to `CC[C@H](C)[C@H](NC(=O)[C@H](CCCN=C(N)N)NC(=O)[C@H](Cc1ccccc1)NC(=O)[C@H](CCCN=C(N)N)NC(=O)[C@@H](N)CCCCN)C(=O)N[C@@H](CCCN=C(N)N)C(=O)N[C@H](C(=O)N[C@@H](CCCN=C(N)N)C(=O)N[C@H](C(=O)N[C@H](C(=O)N[C@@H](CCCN=C(N)N)C(=O)N[C@@H](CCCCN)C(N)=O)[C@@H](C)CC)C(C)C)C(C)C` [KRFRIRVRVIRK], for which the MIC in assay [10] turned out to be 7.38 µM (≈ 12 µg/mL); in assay [1], 0.492 µM (≈ 0.8 µg/mL); in the assay with Escherichia coli UB1005 it was 0.983 µM (≈ 1.6 µg/mL); in [2], 1.84 µM (≈ 3 µg/mL); in assay [3], 3.69 µM (≈ 6 µg/mL); with Candida albicans it was 7.38 µM (≈ 12 µg/mL). Also, the MIC in [5] worked out at 3.69 µM (≈ 6 µg/mL).

Regarding `CC[C@H](C)[C@H](NC(=O)[C@@H](N)CCCN=C(N)N)C(=O)N[C@@H](CCCCN)C(=O)N[C@@H](CCCN=C(N)N)C(=O)N[C@@H](Cc1c[nH]c2ccccc12)C(=O)N[C@@H](Cc1c[nH]c2ccccc12)C(=O)N[C@@H](Cc1c[nH]c2ccccc12)C(=O)N[C@@H](Cc1c[nH]c2ccccc12)C(=O)N[C@@H](CCCN=C(N)N)C(=O)O` [RIKRWWWWR], the MIC in assay [1] came to 1.3 µM (≈ 1.91 µg/mL); in the assay on Escherichia coli UB1005, 2.7 µM (≈ 3.98 µg/mL); in [2] it was 2.7 µM (≈ 3.98 µg/mL); in assay [3], 1.3 µM (≈ 1.91 µg/mL); in [4], 10.8 µM (≈ 15.9 µg/mL); against Candida albicans it was 5.4 µM (≈ 7.95 µg/mL). Moreover, the MIC in [5] was ≥ 86.3 µM.

`CC[C@H](C)[C@H](NC(=O)CNC(=O)[C@H](CCCN=C(N)N)NC(=O)[C@H](Cc1ccc(O)cc1)NC(=O)[C@H](CC(C)C)NC(=O)[C@H](Cc1cnc[nH]1)NC(=O)CNC(=O)[C@H](Cc1ccccc1)NC(=O)[C@@H](N)Cc1c[nH]c2ccccc12)C(=O)N[C@H](C(=O)N[C@@H](CCCCN)C(=O)N[C@H](C(=O)N[C@H](C(=O)N[C@@H](CCCCN)C(=O)N[C@@H](Cc1cnc[nH]1)C(=O)N[C@H](C(=O)N[C@@H](Cc1cnc[nH]1)C(=O)NCC(=O)N[C@@H](CC(C)C)C(=O)N[C@@H](CC(C)C)C(=O)N[C@@H](CCCCN)C(=O)NCC(=O)O)C(C)C)C(C)C)C(C)C)[C@@H](C)O` [WFGHLYRGITKVVKHVHGLLKG]: the MIC is 2.5 µM (≈ 6.37 µg/mL) with Escherichia coli; 2.5 µM (≈ 6.37 µg/mL) in assay [1]; 1.2 µM (≈ 3.06 µg/mL) against Klebsiella pneumoniae; 1.2 µM (≈ 3.06 µg/mL) in the assay on Acinetobacter baumannii; 1.2 µM (≈ 3.06 µg/mL) against Enterococcus faecalis; 4.9 µM (≈ 12.5 µg/mL) with Pseudomonas aeruginosa. In the assay with Staphylococcus aureus, this molecule returned a minimal inhibitory concentration (MIC) of 19.6 µM (≈ 49.9 µg/mL).

Consider `CC(C)C[C@H](NC(=O)[C@H](CC(C)C)NC(=O)[C@H](CCCCN)NC(=O)[C@H](CCCCN)NC(=O)[C@H](Cc1c[nH]c2ccccc12)NC(=O)[C@H](CCCN=C(N)N)NC(=O)[C@H](CCCCN)NC(=O)[C@H](CC(C)C)NC(=O)[C@H](CC(C)C)NC(=O)[C@@H](N)Cc1c[nH]c2ccccc12)C(N)=O` [WLLKRWKKLL], for which the MIC in assay [9] is 16 µM (≈ 22.1 µg/mL); in [3] it was 32 µM (≈ 44.3 µg/mL); in [7], 64 µM (≈ 88.5 µg/mL); in assay [11] it was 8 µM (≈ 11.1 µg/mL).

Regarding `CC[C@H](C)[C@H](NC(=O)[C@H](Cc1ccc(O)cc1)NC(=O)[C@@H](NC(=O)[C@H](CCCN=C(N)N)NC(=O)[C@H](Cc1c[nH]c2ccccc12)NC(=O)[C@H](CCCN=C(N)N)NC(=O)[C@H](Cc1ccccc1)NC(=O)[C@H](CCCCN)NC(=O)[C@@H](N)Cc1ccc(O)cc1)[C@@H](C)CC)C(=O)O` [YKFRWRIYI], the minimum inhibitory concentration (MIC) in assay [1] was 1.4 µM (≈ 1.88 µg/mL); against Escherichia coli UB1005 it was 2.9 µM (≈ 3.9 µg/mL); in assay [2] it was ≥ 92.8 µM; in [3], 2.9 µM (≈ 3.9 µg/mL); in assay [4] it was 2.9 µM (≈ 3.9 µg/mL); against Candida albicans, > 92.8 µM. The MIC in assay [5] was ≥ 92.8 µM.
